ChEMBL document CHEMBL5518208 (J Med Chem, 2024)

Legend:
Type in all cases: ADME, organism-based
[1] = Drug concentration in BALB/c mouse plasma at 100 mg/kg, sc measured after 2 hrs by LC-MS/MS analysis
[2] = AUC last in male ICR mouse at 5 mg/kg, iv measured upto 24 hrs by LC-MS/MS analysis; conditions: in vivo
[3] = Tmax in male ICR mouse at 25 mg/kg, po measured upto 24 hrs by LC-MS/MS analysis; conditions: in vivo
[4] = Observed clearance in male ICR mouse at 5 mg/kg, iv measured upto 24 hrs by LC-MS/MS analysis; conditions: in vivo
[5] = Half life in male ICR mouse at 25 mg/kg, po measured upto 24 hrs by LC-MS/MS analysis; conditions: in vivo
[6] = Observed MRT infinity in male ICR mouse at 25 mg/kg, po measured upto 24 hrs by LC-MS/MS analysis; conditions: in vivo
[7] = Observed AUC infinity in male ICR mouse at 5 mg/kg, iv measured upto 24 hrs by LC-MS/MS analysis; conditions: in vivo
[8] = Drug concentration in BALB/c mouse plasma at 100 mg/kg, sc measured after 1 hrs by LC-MS/MS analysis
[9] = Drug concentration in BALB/c mouse plasma at 100 mg/kg, sc measured after 0.5 hrs by LC-MS/MS analysis
[10] = Observed volume of distribution at steady state in male ICR mouse at 5 mg/kg, iv measured upto 24 hrs by LC-MS/MS analysis; conditions: in vivo, read-out: Vdss
[11] = Observed MRT infinity in male ICR mouse at 5 mg/kg, iv measured upto 24 hrs by LC-MS/MS analysis; conditions: in vivo
[12] = Observed AUC infinity in male ICR mouse at 25 mg/kg, po measured upto 24 hrs by LC-MS/MS analysis; conditions: in vivo
[13] = Half life in male ICR mouse at 5 mg/kg, iv measured upto 24 hrs by LC-MS/MS analysis; conditions: in vivo
[14] = AUC last in male ICR mouse at 25 mg/kg, po measured upto 24 hrs by LC-MS/MS analysis; conditions: in vivo
[15] = Drug concentration in BALB/c mouse plasma at 100 mg/kg, sc measured after 4 hrs by LC-MS/MS analysis
[16] = Cmax in male ICR mouse at 25 mg/kg, po measured upto 24 hrs by LC-MS/MS analysis; conditions: in vivo

With `O=c1ccc2c(N3C[C@@H]4[C@@H](CCP(=O)(O)O)[C@@H]4C3)ncnc2[nH]1` as the molecule, how does the concentration at 2 h [1] read?
The concentration at 2 h was 1.5 µM.

And the AUC(0-t) at 24 h [2]?
Its AUC(0-t) at 24 h is 4390 ng·h/mL.

What about the Tmax [3] of the same molecule?
The Tmax was 45 min.

And the clearance [4]?
The clearance was 21.6 mL/min/kg.

What about the half-life [5] of the same molecule?
Its half-life is 33.6 min.

What about the MRT inf [6] of the same molecule?
Its MRT inf is 156 min.

What about the AUC(0-inf) [7] of the same molecule?
Its AUC(0-inf) is 4400 ng·h/mL.

What about the concentration at 1 h [8] of the same molecule?
The concentration at 1 h was 26 µM.

What about the concentration at 0.5 h [9] of the same molecule?
Its concentration at 0.5 h is 112 µM.

And the Vd [10]?
Its Vd is 0.373 L/kg.

And the MRT inf [11]?
The MRT inf was 18.6 min.

And the AUC(0-inf) [12]?
Its AUC(0-inf) is 965 ng·h/mL.

What about the half-life [13] of the same molecule?
Its half-life is 60.6 min.

And the AUC(0-t) at 24 h [14]?
The AUC(0-t) at 24 h was 932 ng·h/mL.

What about the concentration at 4 h [15] of the same molecule?
Its concentration at 4 h is 0.04 µM.

And the Cmax [16]?
The Cmax was 352 ng/mL.
